Reference: patent EP4659758A1, “ANTI-AGING COMPOSITION” (Mitsubishi Corporation Life Sciences Limited, priority 2023, dated 2024)

Columns and labels:
Type in all cases: cell-based
[1] = system: Normal human epidermal keratinocytes; assay: Suppression of decrease in proliferation capability after hydrogen peroxide aging induction (MTT assay); conditions: 50 µM or 100 µM, 0.5 mM hydrogen peroxide aging induction; relative to untreated non-induced = 100; compared with only aging induction
Protocol: Normal human epidermal keratinocytes were seeded in 96 well plates (1.0 × 10^4 cells/well, N = 3) and precultured for 24 hours (5%CO2, 37°C). As a medium, a commercially available keratinocyte growth medium (PromoCell) was used. Thereafter, the wells were washed once with PBS (-), then replaced with a keratinocyte growth medium dissolved so that the final concentration of Sample 1 was 50 µM or 100 µM, and further incubated for 30 minutes. Thereafter, normal human epidermal keratinocytes were treated with a medium adjusted to have a final concentration of hydrogen peroxide of 0.5 mM to induce aging. Thereafter, an MTT assay was performed according to a conventional method, and the survival rate of normal human epidermal keratinocytes was calculated as a relative value when the survival rate of cells in a test section in which neither the treatment with oxidized glutathione trisulfide nor the aging induction was performed was taken as 100.
For comparison, a test section in which only aging induction was performed without treatment with oxidized glutathione trisulfide was set.
Regarding the survival rate, a significant difference test (t-test, two-tailed) between the two groups of the test section of Sample 1 and the test section in which only aging induction was performed was performed respectively.

tyrosinase = target: T1, tyrosinase (Mus musculus, UniProt P11344); assay: Tyrosinase activity suppression test (L-DOPA, absorbance at 490 nm, cell extract); conditions: 0.05 mM or 0.1 mM at melanin induction
T1 construct: a protein extract containing tyrosinase derived from B16 mouse melanoma cells; endogenous in cells; host or cells: B16 mouse melanoma cells, alpha-MSH induced; RIPA buffer lysate supernatant
T1 sequence (P11344 19-533): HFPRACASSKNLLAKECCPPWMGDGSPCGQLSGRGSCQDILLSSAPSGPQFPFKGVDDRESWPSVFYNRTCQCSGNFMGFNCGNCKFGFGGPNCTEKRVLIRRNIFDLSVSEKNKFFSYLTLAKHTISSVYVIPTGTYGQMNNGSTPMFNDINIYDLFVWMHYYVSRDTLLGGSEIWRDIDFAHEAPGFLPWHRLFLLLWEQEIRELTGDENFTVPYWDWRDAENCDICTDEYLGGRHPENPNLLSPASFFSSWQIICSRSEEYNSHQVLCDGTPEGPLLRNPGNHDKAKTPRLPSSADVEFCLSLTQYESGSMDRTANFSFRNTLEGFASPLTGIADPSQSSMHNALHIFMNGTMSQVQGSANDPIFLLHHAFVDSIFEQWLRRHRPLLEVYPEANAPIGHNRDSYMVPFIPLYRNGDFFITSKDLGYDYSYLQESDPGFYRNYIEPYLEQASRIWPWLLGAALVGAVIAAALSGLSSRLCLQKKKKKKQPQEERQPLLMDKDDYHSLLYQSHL
Excerpt: In addition, the tyrosinase activity in the present invention can be confirmed by adding L-DOPA having a known concentration to a protein extract containing tyrosinase derived from B16 mouse melanoma cells in which melanin is induced by a melanin inducer such as α-MSH (melanocyte stimulating hormone) to react, measuring the absorbance at 490 nm, and correcting the absorbance with the protein concentration in the protein extract. The tyrosinase activity inhibitory effect can be known by comparing the value of the absorbance at 490 nm corrected by the protein concentration measured by adding the test substance at the time of melanin induction and the same operation with the value of the test section to which the test substance is not added.
B16 mouse melanoma cells were seeded in a 6 well plate (2.0 × 10^4 cells/well), and cultured for 24 hours in D-MEM medium to which 5% fetal bovine serum was added with respect to the medium (5%CO2, 37°C). […] The protein concentration of the obtained sample was measured by the BCA method.
The same operation was performed except that melanin induction was not performed, and a reference sample was obtained. […] Fifty µL of a sample of each test section was placed in a 96 well plate (n=3), 50 µL of 0.8 mg/mL L-DOPA was added, the mixture was reacted at 37°C for 1 hour, and then the absorbance at 490 nm was measured with a microplate reader. […]

Normal human fibroblasts [2] = assay: Suppression of decrease in proliferation capability after hydrogen peroxide aging induction (MTT assay); conditions: 50 µM or 100 µM, 0.5 mM hydrogen peroxide aging induction; relative to untreated non-induced = 100; compared with only aging induction and with 100 µM reduced glutathione, p < 0.005
Protocol: Normal human fibroblasts were seeded in 96 well plates (3.0 × 10^3 cells/well, N = 3) and precultured for 24 hours (5% CO2, 37°C). As a medium, MEM-α, nucleosides medium (Gibco) containing fetal bovine serum (10% of serum-free medium was externally added) was used. Thereafter, the wells were washed once with PBS (-), then replaced with MEM-α, nucleoside medium containing fetal bovine serum (5% of serum-free medium was externally added) dissolved so that the final concentration of Sample 1 or Sample 2 was 50 µM or 100 µM, and further incubated for 30 minutes. Thereafter, fibroblasts were treated with a medium adjusted so that the final concentration of hydrogen peroxide was 0.5 mM to induce aging. Thereafter, an MTT assay was performed according to a conventional method, and the survival rate of fibroblasts was calculated as a relative value when the survival rate of cells in the test section in which neither treatment nor aging induction was performed was taken as 100.
For comparison, a test section in which only aging induction was performed and a test section in which reduced glutathione was 100 µM was set instead of Sample 1. […]

[3] = system: Normal human epidermal keratinocytes; assay: Suppression of decrease in hyaluronic acid production capability due to aging induction (ELISA); conditions: 50 µM, 0.5 mM hydrogen peroxide, 24 hours
Protocol: Normal human epidermal keratinocytes were seeded in 24 well plates (1.0 × 10^5 cells/well, N = 3) and precultured for 24 hours (5%CO2, 37°C). As a medium, a commercially available keratinocyte growth medium (PromoCell) was used. Thereafter, the wells were washed once with PBS (-), then replaced with a keratinocyte growth medium dissolved so that the final concentration of Sample 1 was 50 µM, and further incubated for 30 minutes. Thereafter, normal human epidermal keratinocytes were treated with a medium adjusted to have a final concentration of hydrogen peroxide of 0.5 mM to induce aging. Thereafter, the medium was replaced with a new keratinocyte growth medium and incubated for 24 hours, and then the amount of hyaluronic acid was quantified by an ELISA method using a hyaluronic acid quantification kit (Cosmo Bio). For comparison, a test section not treated with oxidized glutathione trisulfide was provided.
The hyaluronic acid production amount in each of the test sections was shown as a relative value when the hyaluronic acid production amount in the test section in which neither oxidized glutathione trisulfide treatment nor aging induction was performed was taken as 100. […]

Normal human fibroblasts [4] = assay: as above; conditions: 50 µM or 100 µM, 0.5 mM hydrogen peroxide, 24 hours; for hyaluronic acid production amount: relative value, compared with only aging induction
Protocol: Normal human fibroblasts were seeded in 24 well plates (8.0 × 10^4 cells/well, N = 3) and precultured for 24 hours (5% CO2, 37°C). As a medium, MEM-α, nucleosides medium (Gibco) containing fetal bovine serum (10% of serum-free medium was externally added) was used. Thereafter, the wells were washed once with PBS (-), then replaced with MEM-α, nucleoside medium containing fetal bovine serum (5% of serum-free medium was externally added) dissolved so that the final concentration of Sample 1 or Sample 2 was 50 µM or 100 µM, and further incubated for 30 minutes. Thereafter, fibroblasts were treated with a medium adjusted so that the final concentration of hydrogen peroxide was 0.5 mM to induce aging. Thereafter, the culture medium was changed to MEM-α, nucleoside medium containing fetal bovine serum (5% of serum-free culture medium was externally added) and incubated for 24 hours, and then the amount of hyaluronic acid was quantified by ELISA using a hyaluronic acid quantification kit (Cosmo Bio Inc.).
The hyaluronic acid production amount in each test section was shown as a relative value when the hyaluronic acid production amount in each sample and the test section in which aging induction was not performed was taken as 100. Regarding the hyaluronic acid production amount, a significant difference test (t-test, two-tailed) between the two groups of the test section for Sample 1 and the test section for which only the aging induction was performed respectively, and a significant difference test between the test section for Sample 2 and the test section for which only the aging induction was performed were each performed, and "*(p < 0.05)" was marked for those in which a significant difference was recognized.

B16 mouse melanoma cells = assay: Melanin production suppression test in cultured cells (absorbance at 405 nm); conditions: α-MSH 200 nM induction; for melanin production amount: 0.02 mM or 0.05 mM, relative to reference sample (induction only) = 100, p < 0.01
Protocol: B16 mouse melanoma cells were seeded in a 6 well plate (2.0 × 10^4 cells/well), and cultured for 24 hours in D-MEM medium to which 5% fetal bovine serum was added with respect to the medium (5%CO2, 37°C). […] The obtained pellets were washed twice with PBS (-), 150 µL of a 1 M sodium hydroxide solution was then added, and the mixture was treated at 100°C for 10 minutes to dissolve the pellets, thereby preparing a reference sample. […] One hundred µL of a sample of each test section was added to a 96 well plate, and the absorbance at 405 nm was measured with a microplate reader (n = 3). […] The significant difference test was performed on the measured value of the reference sample by the Dunnett method (*p < 0.05, **p < 0.01.).

N[C@@H](CCC(=O)N[C@@H](CSSSC[C@H](NC(=O)CC[C@H](N)C(=O)O)C(=O)NCC(=O)O)C(=O)NCC(=O)O)C(=O)O [Sample 1, oxidized glutathione trisulfide]
survival rate of normal human epidermal keratinocytes (cell proliferation rate) [1]: significant cell proliferation rate | tyrosinase activity (tyrosinase; compared with reference sample (no melanin induction) = 100): same degree of tyrosinase activity as the reference sample | tyrosinase activity (tyrosinase; compared with test section with only melanin induction): significantly lower than the test section in which only melanin induction was performed | survival rate of fibroblasts (cell proliferation rate) (Normal human fibroblasts [2]): significant cell proliferation rate | hyaluronic acid production capability ([3]; compared with control group without aging induction, no significant difference): same hyaluronic acid production capability as that of the control group in which aging is not induced | hyaluronic acid production amount ([3]; relative value, compared with only aging induction): significantly higher than that in the test section of only aging induction | hyaluronic acid production capability (Normal human fibroblasts [4]; compared with test sections without aging induction, no significant difference): same hyaluronic acid production capability as those of the test sections that did not induce aging | hyaluronic acid production amount (Normal human fibroblasts [4]): significantly higher than that in the test section of only aging induction | melanin production amount (B16 mouse melanoma cells): significantly low

CC(=O)N[C@@H](CSSSC[C@H](NC(C)=O)C(=O)O)C(=O)O [Sample 2, oxidized NAC trisulfide]
survival rate of fibroblasts (cell proliferation rate) (Normal human fibroblasts [2]): significant cell proliferation rate | hyaluronic acid production amount (Normal human fibroblasts [4]): significantly higher than that in the test section of only aging induction | melanin production amount (B16 mouse melanoma cells): significantly low

N[C@@H](CCC(=O)N[C@@H](CS)C(=O)NCC(=O)O)C(=O)O [reduced glutathione, reference compound]
melanin production suppressing effect (B16 mouse melanoma cells; 3 mM, compared with 0.02 mM Sample 1): same melanin production suppressing effect as the 0.02 mM test section of Sample 1
